From ChEMBL document CHEMBL1201862, “PubChem BioAssay data set” (2004)
Activity calls are given as the source filed them.

Legend:
[1] = molecular target: Runt-related transcription factor 1/Core-binding factor subunit beta (Homo sapiens, UniProt Q01196+Q13951); test: inhibitors of RUNX1 Runt–CBFb-SMMHC binding, primary screen, biochemical, FRET, Cerulean-Runt, Venus-CBFb-SMMHC, uHTS (AID 1434); type: protein assay;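 further: partner is the CBFb-SMMHC leukemia fusion protein rather than wild-type CBFb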
Chain of Runt-related transcription factor 1/Core-binding factor subunit beta (Q01196 whole entry, the tested form may be a part): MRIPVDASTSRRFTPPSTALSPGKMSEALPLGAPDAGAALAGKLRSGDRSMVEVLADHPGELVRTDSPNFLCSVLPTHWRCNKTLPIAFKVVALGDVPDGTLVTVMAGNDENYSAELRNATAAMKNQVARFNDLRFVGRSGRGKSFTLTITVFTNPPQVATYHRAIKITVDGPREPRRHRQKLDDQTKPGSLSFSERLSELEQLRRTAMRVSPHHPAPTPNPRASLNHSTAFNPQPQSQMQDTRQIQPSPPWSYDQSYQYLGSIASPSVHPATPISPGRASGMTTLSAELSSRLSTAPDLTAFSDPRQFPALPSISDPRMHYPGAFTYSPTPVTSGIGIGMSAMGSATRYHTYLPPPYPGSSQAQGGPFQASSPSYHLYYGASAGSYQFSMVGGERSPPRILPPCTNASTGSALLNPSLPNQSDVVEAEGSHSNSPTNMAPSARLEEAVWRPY
Chain of Runt-related transcription factor 1/Core-binding factor subunit beta (Q13951 whole entry, the tested form may be a part): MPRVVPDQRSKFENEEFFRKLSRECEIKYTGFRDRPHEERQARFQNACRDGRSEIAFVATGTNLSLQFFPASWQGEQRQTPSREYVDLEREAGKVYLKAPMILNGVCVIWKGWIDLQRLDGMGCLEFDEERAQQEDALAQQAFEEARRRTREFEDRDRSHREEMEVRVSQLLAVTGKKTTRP

[2] = molecular target: Heat shock 70 kDa protein 1A (Homo sapiens, UniProt P0DMV8); test: Hsp70 inhibitors, SAR follow-up, biochemical, fluorescence polarization (AID 1072)
Chain of Heat shock 70 kDa protein 1A (P0DMV8 whole entry): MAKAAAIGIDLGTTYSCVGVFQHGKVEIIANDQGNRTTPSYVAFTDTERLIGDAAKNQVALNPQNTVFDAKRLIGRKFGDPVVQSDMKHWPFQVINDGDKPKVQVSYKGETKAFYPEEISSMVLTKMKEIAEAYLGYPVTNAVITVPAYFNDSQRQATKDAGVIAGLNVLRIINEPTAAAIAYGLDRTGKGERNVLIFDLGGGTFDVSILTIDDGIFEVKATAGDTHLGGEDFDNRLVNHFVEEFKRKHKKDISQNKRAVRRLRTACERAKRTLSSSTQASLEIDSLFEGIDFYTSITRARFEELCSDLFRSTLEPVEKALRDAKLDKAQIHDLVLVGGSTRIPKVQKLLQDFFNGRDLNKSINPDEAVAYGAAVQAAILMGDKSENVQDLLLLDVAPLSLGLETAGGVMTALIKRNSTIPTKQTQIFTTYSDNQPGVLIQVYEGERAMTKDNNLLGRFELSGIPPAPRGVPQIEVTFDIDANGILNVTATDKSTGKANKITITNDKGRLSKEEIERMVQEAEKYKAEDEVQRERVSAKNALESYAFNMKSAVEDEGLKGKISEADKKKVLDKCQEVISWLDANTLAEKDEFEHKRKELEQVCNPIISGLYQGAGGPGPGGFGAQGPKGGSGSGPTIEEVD

[3] = molecular target: Voltage-gated N-type calcium channel alpha-1B subunit/Amyloid beta A4 precursor protein-binding family A member 1 (Homo sapiens, UniProt Q00975+Q02410); type: protein assay
[4] = molecular target: T1, Dual specificity protein phosphatase 6 (Rattus norvegicus, UniProt Q64346); test: MKP-3 phosphatase inhibitors, primary screen, biochemical, rat enzyme, in vitro (AID 425)
T1 sequence (Q64346 whole entry): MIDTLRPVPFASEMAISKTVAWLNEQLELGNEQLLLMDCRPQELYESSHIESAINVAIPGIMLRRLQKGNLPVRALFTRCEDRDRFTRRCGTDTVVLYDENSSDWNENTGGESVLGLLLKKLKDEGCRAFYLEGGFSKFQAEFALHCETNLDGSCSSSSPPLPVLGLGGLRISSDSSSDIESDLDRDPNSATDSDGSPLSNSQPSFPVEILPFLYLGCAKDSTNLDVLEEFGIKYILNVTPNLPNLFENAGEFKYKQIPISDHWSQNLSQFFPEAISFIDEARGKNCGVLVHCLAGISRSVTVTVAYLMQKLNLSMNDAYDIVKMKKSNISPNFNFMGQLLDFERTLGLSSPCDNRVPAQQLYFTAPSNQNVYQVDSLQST

ORF 73 = molecular target: T2, ORF 73 (Human herpesvirus 8, UniProt O40947); test: inhibitors of C-LANA binding to LBS DNA, dose response, biochemical, fluorescence polarization, cherry-picked samples (AID 504725); set-up: species or system Human gammaherpesvirus 8;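 further: fluorescence polarization of a labeled DNA duplex reporting LANA DNA binding; potency is for inhibitors that block LANA binding to the DNA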
T2 sequence (O40947 whole entry): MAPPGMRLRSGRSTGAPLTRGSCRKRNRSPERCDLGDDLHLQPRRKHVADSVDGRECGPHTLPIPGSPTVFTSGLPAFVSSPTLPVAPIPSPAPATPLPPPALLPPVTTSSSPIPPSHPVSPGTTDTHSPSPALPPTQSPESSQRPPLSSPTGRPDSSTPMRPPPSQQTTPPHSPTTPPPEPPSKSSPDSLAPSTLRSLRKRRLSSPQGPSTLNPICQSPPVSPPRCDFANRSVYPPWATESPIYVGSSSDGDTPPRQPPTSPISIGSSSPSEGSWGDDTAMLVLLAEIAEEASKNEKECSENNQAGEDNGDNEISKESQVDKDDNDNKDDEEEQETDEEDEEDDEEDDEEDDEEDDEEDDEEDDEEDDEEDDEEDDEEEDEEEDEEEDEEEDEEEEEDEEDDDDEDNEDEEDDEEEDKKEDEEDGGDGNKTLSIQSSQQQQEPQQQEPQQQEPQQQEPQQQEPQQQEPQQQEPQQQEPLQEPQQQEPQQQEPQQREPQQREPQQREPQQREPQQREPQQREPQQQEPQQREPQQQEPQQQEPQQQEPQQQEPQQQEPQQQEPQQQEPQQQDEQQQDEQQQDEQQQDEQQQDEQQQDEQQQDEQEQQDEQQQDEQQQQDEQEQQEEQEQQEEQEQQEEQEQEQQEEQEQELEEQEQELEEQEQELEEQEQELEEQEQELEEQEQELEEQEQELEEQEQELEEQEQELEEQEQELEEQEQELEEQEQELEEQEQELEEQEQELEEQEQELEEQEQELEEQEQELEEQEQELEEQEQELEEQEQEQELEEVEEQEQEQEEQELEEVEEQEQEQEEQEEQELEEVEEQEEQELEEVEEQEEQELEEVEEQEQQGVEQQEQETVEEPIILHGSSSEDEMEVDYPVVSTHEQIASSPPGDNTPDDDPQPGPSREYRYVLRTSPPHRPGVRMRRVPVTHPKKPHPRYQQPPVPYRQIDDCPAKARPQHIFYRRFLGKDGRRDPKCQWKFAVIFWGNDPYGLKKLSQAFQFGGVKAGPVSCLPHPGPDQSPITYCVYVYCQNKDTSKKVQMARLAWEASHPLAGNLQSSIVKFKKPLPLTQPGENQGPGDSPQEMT

[5] = molecular target: T3, Ubiquitin-conjugating enzyme E2 N (Homo sapiens, UniProt P61088); type: functional
T3 sequence (P61088 whole entry): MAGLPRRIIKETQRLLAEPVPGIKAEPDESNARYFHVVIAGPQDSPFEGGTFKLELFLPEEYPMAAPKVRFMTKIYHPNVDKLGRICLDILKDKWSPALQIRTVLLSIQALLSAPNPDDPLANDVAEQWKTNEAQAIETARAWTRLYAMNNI

[6] = molecular target: RAC-gamma serine/threonine-protein kinase (Homo sapiens, UniProt Q9Y243); type: functional
Chain of RAC-gamma serine/threonine-protein kinase (Q9Y243 whole entry): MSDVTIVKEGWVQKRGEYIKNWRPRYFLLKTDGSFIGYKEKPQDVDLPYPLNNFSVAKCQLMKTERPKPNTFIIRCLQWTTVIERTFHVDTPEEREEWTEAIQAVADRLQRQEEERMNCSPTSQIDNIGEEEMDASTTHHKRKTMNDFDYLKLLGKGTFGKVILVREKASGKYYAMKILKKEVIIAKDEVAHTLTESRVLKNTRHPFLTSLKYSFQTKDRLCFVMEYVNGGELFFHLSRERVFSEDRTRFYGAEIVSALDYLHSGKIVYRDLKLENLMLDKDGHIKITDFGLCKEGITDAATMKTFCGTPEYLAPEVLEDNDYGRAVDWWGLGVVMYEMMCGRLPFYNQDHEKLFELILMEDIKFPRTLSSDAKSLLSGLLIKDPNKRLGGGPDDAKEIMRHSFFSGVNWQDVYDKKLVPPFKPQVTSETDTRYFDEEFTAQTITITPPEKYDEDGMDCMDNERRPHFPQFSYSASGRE

[7] = molecular target: Protein kinase C delta type (Homo sapiens, UniProt Q05655); type: functional
[8] = molecular target: Serine/threonine-protein kinase 17A (Homo sapiens, UniProt Q9UEE5); type: functional
Chain of Serine/threonine-protein kinase 17A (Q9UEE5 whole entry): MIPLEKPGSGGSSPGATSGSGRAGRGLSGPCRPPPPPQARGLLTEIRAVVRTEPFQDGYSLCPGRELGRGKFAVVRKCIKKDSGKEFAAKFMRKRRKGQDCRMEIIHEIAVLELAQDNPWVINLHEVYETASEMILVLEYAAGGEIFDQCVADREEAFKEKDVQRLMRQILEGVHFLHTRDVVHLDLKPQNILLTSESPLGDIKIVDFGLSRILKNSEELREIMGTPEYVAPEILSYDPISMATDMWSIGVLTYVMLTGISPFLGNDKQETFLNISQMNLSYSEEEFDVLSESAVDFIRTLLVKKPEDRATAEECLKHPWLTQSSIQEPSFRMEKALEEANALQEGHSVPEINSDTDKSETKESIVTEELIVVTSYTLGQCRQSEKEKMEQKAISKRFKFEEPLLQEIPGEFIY

[9] = molecular target: MAP kinase-activated protein kinase 5 (Homo sapiens, UniProt Q8IW41); type: functional;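 further: measured as one member of a kinome panel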
Chain of MAP kinase-activated protein kinase 5 (Q8IW41 whole entry): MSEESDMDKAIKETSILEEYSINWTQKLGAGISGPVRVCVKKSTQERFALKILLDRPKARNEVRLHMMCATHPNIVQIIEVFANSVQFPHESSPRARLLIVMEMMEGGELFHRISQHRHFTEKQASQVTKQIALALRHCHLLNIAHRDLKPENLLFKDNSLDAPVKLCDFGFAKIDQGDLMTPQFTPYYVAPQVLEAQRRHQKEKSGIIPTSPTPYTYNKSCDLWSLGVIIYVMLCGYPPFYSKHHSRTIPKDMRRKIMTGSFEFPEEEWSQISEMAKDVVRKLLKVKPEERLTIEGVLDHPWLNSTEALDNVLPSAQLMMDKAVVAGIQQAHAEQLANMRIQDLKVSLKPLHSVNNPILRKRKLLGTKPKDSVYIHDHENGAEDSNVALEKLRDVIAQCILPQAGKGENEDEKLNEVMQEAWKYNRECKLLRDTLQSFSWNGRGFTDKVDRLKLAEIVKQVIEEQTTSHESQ

[10] = molecular target: MAP kinase-activated protein kinase 2 (Homo sapiens, UniProt P49137); type: functional;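 further: measured as one member of a kinome-wide kinase panel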
[11] = molecular target: Calcium/calmodulin-dependent protein kinase type 1 (Homo sapiens, UniProt Q14012); type: functional
[12] = molecular target: Inhibitor of nuclear factor kappa-B kinase subunit beta (Homo sapiens, UniProt O14920); type: functional
[13] = molecular target: Tyrosine-protein kinase Lck (Homo sapiens, UniProt P06239); type: functional;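 further: lck was assayed as one member of a kinase panel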
Chain of Tyrosine-protein kinase Lck (P06239 whole entry): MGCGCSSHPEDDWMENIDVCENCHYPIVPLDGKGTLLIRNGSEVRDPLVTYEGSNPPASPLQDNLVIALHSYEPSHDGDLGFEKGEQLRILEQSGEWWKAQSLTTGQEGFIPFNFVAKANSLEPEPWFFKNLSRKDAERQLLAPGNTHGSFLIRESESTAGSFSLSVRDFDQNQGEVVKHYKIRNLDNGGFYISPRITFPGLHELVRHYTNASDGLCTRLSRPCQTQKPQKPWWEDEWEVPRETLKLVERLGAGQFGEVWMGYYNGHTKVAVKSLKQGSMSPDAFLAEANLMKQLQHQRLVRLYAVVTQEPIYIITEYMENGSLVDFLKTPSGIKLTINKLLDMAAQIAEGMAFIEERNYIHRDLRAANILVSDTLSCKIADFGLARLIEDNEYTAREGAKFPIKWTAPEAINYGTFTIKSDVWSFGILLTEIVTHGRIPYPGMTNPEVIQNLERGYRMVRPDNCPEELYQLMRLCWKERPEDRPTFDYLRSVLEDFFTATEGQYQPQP

[14] = molecular target: Fibroblast growth factor receptor 1 (Homo sapiens, UniProt P11362); type: functional
Chain of Fibroblast growth factor receptor 1 (P11362 whole entry): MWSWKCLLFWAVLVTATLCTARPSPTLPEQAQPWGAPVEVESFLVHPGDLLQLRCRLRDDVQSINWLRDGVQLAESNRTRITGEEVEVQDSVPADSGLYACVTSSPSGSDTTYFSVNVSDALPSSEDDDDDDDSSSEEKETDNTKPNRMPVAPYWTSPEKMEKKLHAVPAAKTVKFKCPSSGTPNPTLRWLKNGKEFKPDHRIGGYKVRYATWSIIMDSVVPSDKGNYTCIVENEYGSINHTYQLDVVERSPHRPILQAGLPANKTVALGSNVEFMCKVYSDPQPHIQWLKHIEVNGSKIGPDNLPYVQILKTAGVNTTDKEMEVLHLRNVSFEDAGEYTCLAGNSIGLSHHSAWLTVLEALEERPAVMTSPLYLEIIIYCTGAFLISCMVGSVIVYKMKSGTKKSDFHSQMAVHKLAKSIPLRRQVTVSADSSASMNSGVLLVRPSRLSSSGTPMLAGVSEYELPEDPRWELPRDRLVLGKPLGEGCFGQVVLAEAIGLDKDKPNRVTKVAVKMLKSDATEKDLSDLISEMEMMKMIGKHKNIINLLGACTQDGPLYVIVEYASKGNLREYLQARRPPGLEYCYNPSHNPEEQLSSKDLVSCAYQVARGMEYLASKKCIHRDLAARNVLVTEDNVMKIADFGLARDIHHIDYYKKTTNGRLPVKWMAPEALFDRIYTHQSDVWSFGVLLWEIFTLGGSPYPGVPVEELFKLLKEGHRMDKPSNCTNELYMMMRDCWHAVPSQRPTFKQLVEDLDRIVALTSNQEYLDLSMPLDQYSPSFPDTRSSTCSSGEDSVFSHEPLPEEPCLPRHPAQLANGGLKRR

[15] = molecular target: Glycogen synthase kinase-3 beta (Homo sapiens, UniProt P49841); type: functional;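 further: value comes from a broad kinome profiling panel, with GSK3B as the panel member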
[16] = molecular target: Macrophage-stimulating protein receptor (Homo sapiens, UniProt Q04912); test: Navigating the Kinome. Panel member name: MST1R; type: functional
[17] = molecular target: Heat shock protein HSP 90-alpha (Homo sapiens, UniProt P07900); test: Luminescence-based dose response biochemical high throughput screening assay for inhibitors of the Heat Shock Protein 90 (HSP90). [Related pubchem assays: 1831 (Summary AID.), 1846 (Confirmation screen.), 1789 (Primary screen.)]
Beta-galactosidase = Beta-galactosidase (Escherichia coli, UniProt Q8VNN2); test: beta-galactosidase enzyme inhibitors and activators, dose response, artefact control for CCR6 antagonist project, biochemical, E. coli enzyme, set 3 (AID 504712); type: functional
Chain of Beta-galactosidase (Q8VNN2 whole entry): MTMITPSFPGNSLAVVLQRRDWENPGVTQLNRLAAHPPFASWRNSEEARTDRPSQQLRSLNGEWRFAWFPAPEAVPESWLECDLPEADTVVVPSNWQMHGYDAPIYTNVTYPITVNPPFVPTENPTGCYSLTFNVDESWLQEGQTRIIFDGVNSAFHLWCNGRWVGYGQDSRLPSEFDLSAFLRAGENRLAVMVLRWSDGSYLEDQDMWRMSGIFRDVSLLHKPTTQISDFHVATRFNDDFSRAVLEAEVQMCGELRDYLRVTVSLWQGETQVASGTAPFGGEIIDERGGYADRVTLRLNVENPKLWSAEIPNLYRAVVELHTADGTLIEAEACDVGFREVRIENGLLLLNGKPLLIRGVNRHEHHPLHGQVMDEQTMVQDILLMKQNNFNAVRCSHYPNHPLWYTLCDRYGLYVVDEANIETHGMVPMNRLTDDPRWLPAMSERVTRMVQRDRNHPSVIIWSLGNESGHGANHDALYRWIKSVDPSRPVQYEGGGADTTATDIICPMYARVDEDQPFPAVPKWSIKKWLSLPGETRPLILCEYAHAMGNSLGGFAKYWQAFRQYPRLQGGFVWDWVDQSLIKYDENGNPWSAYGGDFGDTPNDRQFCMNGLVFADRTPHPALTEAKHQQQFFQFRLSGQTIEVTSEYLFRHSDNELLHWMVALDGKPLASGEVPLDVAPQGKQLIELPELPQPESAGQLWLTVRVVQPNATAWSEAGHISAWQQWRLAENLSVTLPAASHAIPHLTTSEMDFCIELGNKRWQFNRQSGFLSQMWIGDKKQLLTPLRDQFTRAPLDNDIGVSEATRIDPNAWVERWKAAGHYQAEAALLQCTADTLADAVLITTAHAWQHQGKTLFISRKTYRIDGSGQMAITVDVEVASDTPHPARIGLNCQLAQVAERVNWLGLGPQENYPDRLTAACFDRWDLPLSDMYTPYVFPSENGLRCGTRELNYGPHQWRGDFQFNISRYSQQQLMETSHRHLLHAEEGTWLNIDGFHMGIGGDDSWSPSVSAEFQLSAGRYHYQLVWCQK

[18] = molecular target: Intestinal-type alkaline phosphatase (Homo sapiens, UniProt P09923); test: inhibition of human intestinal alkaline phosphatase – biochemical, dose response (AID 488876); type: functional

COc1cccc2c1NC(C(=O)O)C1CC=CC21 (stereo not given)
IC50 [1]: > 100 µM (inactive) | IC50 [2]: 6.26 µM (active) | IC50 [3]: 4.46 µM (active) | IC50 [4]: > 10 µM (not active) | AC50 (ORF 73): 35.8 µM (active) | IC50 [5]: > 20 µM (inactive)

Cc1ccc(F)c(NC(=O)Nc2ccc(-c3cccc4[nH]nc(N)c34)cc2)c1 [LINIFANIB]
Ki [6]: > 10 µM (inactive) | Ki [7]: > 7.94 µM (inactive) | Ki [8]: > 3.98 µM (inactive) | Ki [9]: > 1.58 µM (inactive) | Ki [10]: > 7.94 µM (inactive) | Ki [11]: 6.31 µM (active) | Ki [12]: > 3.16 µM (inactive)

COc1c(-c2nc3ccccc3[nH]2)c(O)cc2oc(C)cc(=O)c12
Ki [13]: > 6.31 µM (inactive) | Ki [14]: 0.501 µM (active) | Ki [15]: 0.398 µM (active) | Ki [16]: 1.58 µM (active)

CCc1ccc(S(=O)(=O)/N=C2\C=C(Nc3ccc(O)cc3)C(=O)c3ccccc32)cc1
IC50 [17]: 1.28 µM (active) | IC50 (Beta-galactosidase): 41.3 µM (inactive)

O=C1/C(=C\c2cccc(O)c2O)SC(=S)N1Cc1ccccc1
IC50 [18]: > 100 µM (inactive)
